The values below come from ChEMBL document CHEMBL3758147, “1,9-seco-Bicyclic Polyprenylated Acylphloroglucinols from Hypericum uralum” (J Nat Prod, 2015).

The structures appear in SMILES notation.

For one assay, the target named is Acetylcholinesterase (Homo sapiens, UniProt P22303). In words: Inhibition of human erythrocyte AChE using acetylthiocholine as substrate assessed as substrate hydrolysis preincubated for 20 mins followed by substrate addition measured after 30 mins by Ellman's assay.
Chain of Acetylcholinesterase (P22303 whole entry): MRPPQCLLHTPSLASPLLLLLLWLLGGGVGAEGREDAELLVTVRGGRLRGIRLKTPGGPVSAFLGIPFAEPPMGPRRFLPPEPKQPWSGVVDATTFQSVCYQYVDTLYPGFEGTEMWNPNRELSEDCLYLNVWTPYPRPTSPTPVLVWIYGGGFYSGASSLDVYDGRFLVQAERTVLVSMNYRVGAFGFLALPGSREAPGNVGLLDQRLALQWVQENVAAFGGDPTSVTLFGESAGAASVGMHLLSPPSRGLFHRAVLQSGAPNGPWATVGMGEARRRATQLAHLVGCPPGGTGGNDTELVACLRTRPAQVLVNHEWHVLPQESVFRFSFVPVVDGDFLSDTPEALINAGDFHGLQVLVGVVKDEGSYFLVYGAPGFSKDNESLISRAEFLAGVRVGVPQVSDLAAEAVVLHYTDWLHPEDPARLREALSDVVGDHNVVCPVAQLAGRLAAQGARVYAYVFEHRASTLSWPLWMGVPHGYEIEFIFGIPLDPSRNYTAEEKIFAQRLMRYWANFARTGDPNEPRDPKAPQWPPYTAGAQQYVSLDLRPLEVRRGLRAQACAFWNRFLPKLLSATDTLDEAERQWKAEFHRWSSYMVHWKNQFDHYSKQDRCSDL
Conditions: not given; call rule not given here
(DTNB colorimetry detects thiols as they appear.)
As a reminder, the IC50 is the point on the concentration scale where inhibition reaches its midpoint. Regarding `CC(C)=CCC[C@]1(C)[C@@H](CC=C(C)C)C[C@@]2(CC=C(C)C)C(=O)O[C@@](CC=C(C)C)(C(=O)[C@H]1C(=O)C(C)C)C2=O`, the IC50 entry is given as “Not Active”.

On to `CC(C)=CC[C@H]1C[C@@]2(CC=C(C)C)C(=O)O[C@](CC=C(C)C)(C2=O)C(=O)[C@]23C(=O)c4ccccc4C(C)(C)[C@H]2CC[C@]13C`, for which the IC50 result is given as “Not Active”.

For the compound `CC(C)=CCC[C@]1(C)[C@@H](CC=C(C)C)C[C@H](CC=C(C)C)C(=O)[C@](O)(CC=C(C)C)C(=O)[C@H]1C(=O)C(C)C`, the IC50 entry was “Not Active”.

As for `CCC(C)C(=O)[C@@H]1C(=O)[C@]2(CC=C(C)C)OC(=O)[C@](CC=C(C)C)(C[C@H](CC=C(C)C)[C@@]1(C)C/C=C/C(C)(C)OO)C2=O` (some centres not stated), the IC50 entry is “Not Active”.

For `CC(C)=CCC1=C2OC(C)(C)[C@H](O)[C@H]3/C=C(/C)[C@@H](CC=C(C)C)C[C@](CC=C(C)C)(C1=O)C(=O)[C@]23C(=O)c1ccccc1`, the IC50 result is recorded as “Not Active”.

In the case of `CC(C)=CC[C@H]1C[C@@]2(CC=C(C)C)C(=O)C3(CC=C(C)C)CC14C[C@@H](C=C(C)C)C(C(=O)c1ccccc1)(C3=O)C42O`, the IC50 result was “Not Active”.

For the compound `CC(C)=CC[C@H]1C[C@@]2(CC=C(C)C)C(=O)O[C@@](CC=C(C)C)(C(=O)[C@@H](C(=O)C(C)C)[C@]1(C)C/C=C/C(C)(C)OO)C2=O`, the IC50 entry was “Not Active”.

For the compound `CC(C)=CCC/C(C)=C/C[C@]12C[C@@H](CC=C(C)C)C(C)(C)[C@H](C(=O)C(C)C)C(=O)[C@](CC=C(C)C)(OC1=O)C2=O`, the IC50 entry is “Not Active”.

For the compound `CCC(C)C(=O)[C@@H]1C(=O)[C@]2(CC=C(C)C)OC(=O)[C@](C/C=C(\C)CCC=C(C)C)(C[C@@H](CC=C(C)C)C1(C)C)C2=O` (some centres not stated), the IC50 result is listed as “Not Active”.

In the case of `CC(C)=CC[C@H]1C[C@@]23C[C@H]4C(C)(C)c5ccccc5C(=O)[C@]45C(=O)C(CC=C(C)C)(C[C@@]1(C/C=C/C(C)(C)O)C25O)C3=O`, the IC50 entry is on record as “Not Active”.

The same assay, now with this note: read-out: IC50.
`CCC(C)C(=O)[C@@H]1C(=O)[C@]2(CC=C(C)C)OC(=O)[C@](CC=C(C)C)(C[C@H](CC=C(C)C)[C@@]1(C)C/C=C/C(C)(C)O)C2=O` (some centres not stated): the IC50 stood at 7.1 µM.

As for `CC(C)=CC[C@H]1C[C@@]2(CC=C(C)C)C(=O)O[C@@](CC=C(C)C)(C(=O)[C@@H](C(=O)C(C)C)[C@]1(C)C/C=C/C(C)(C)O)C2=O`, the IC50 stood at 9.6 µM.
